Tests used:
Format in all cases: cell-based, human
[1] = system: peripheral blood CD8+ T cells; experiment: In vitro suppression assay, peripheral blood CD8+ T cells (CFSE CD4+ T cell proliferation); details: for suppressor activity acquired by stimulated CD8+ T cells (suppression of CD4+ T cell proliferation): 10 μg/mL, 3 days, co-culture 1:1 with CFSE-labeled CD3/CD28-stimulated CD4+ T cells; for percent suppression of CD4+ T cell proliferation (suppressive activity): single peptide 10 μg/mL, normalized against unstimulated CD8+ T cells
Description: To identify the N-domain peptides that trigger the activation of CD8+ T cells with the suppressor phenotype, peripheral blood CD8^+ T cells and peripheral blood CD4^+ T cells were selected using CD8^+ and CD4^+ T-cell selection kits (Stemcell Technologies, Vancouver, Canada), respectively.
Anti-CD3/CD28 beads were used as positive controls. Cells were then washed, counted, and added at a ratio of 1:1 (2×10^6) to peripheral CD4^+ T cells labeled with carboxyfluorescein succinimidyl ester (CFSE) (Invitrogen, CA), and either unstimulated or stimulated with anti-CD3/CD28 beads.
(§1) Proliferation of CD4^+ T-cells measured by CFSE dilution was evaluated by flow cytometry. CD4+ T cells were labeled with PE anti-CD4 antibody. Percent suppression was calculated based on equation 1:
(§2) % Supp=100*[1−(%Exp/%Control)] (1)
(§3) where: • %Supp=percent suppression • %Exp=the percentage of proliferating CD4+ T cells in the experimental population • % Control=the percentage of proliferating CD4+ T cells in the control population
These peptides were selected due to their activity in the phosphorylation assay. […] Peptides 13 and 15 were also shown to activate suppression, although to a more modest extent (˜10% suppressive activity).
Finally, peptides a-d (see FIG. 7A) were also evaluated using the same procedure, incubating the cells with each single peptide (10 μg/mL).

[2] = system: LcK phosphorylation in peripheral blood CD8+ T cells; experiment: In cell western blot LcK phosphorylation assay; details: 10 μg/mL, 5, 10, 15 minutes
Procedure: The library of peptides 1-20 was first evaluated by western blot for their ability to activate CD8+ T cells, as indicated by the ability to stimulate LcK phosphorylation (“pLcK”). Peripheral blood isolated CD8′ T cells (2×10^6) were seeded in a 96-well flat-bottom plate and starved in RPMI serum free medium overnight at 37° C. The next day and prior to performing the experiments, the plate was placed on ice for 15 minutes. Cells were stimulated with OKT8 (5 μg/mL) (a known CD8+ T cell activator), purified CEACAM5 peptide (10 μg/mL), the entire library of peptides (10 μg/mL), Pool 1 (10 μg/mL), Pool 2 (10 μg/mL), Pool 3 (10 μg/mL), or each single N-domain peptide (10 μg/mL). Unstimulated cells were also evaluated for each condition. Prior to these experiments a titration curve was performed for the entire library of peptides. A range of concentration between 1 and 100 μg/mL was tested.
Stimulation was stopped using a 4% formaldehyde buffer for 20 minutes followed by centrifugation for 10 minutes at 1,500 rpm. Permeabilization was performed by washing the cells with 1×PBS containing 0.1% Triton X-100 for 5 minutes per wash. After permeabilization, cells were incubated for 1 hour with a blocking buffer (Odyssey Blocking buffer-LICOR) followed by the primary antibodies (goat anti-actin and rabbit anti-pLcK) overnight at 4° C. The next day, cells were washed 5 times with 1×PBS containing 0.1% Tween 20, incubated for 1 hour at room temperature with the secondary antibodies (IRDye 800CW donkey anti goat IgG, IRDye 680 CW donkey anti rabbit IgG), and then washed five times. Wells were dried and the plate was scanned using an Odyssey LiCOR system. The software ImageJ was used for quantification of pLcK. Each value was calculated using actin expression as a house keeping gene and taking into consideration any background noise. […]

[3] = system: CD8-associated LcK kinase in CD8+ T cells; experiment: Flow cytometry LcK phosphorylation assay; details: 2, 8, 10, 15 minutes at 37° C., peptide 12 at 20 μg/ml
Procedure: To confirm the ability of peptide 12 to activate CD8+ T cells, a second LcK phosphorylation assay was conducted using flow cytometry. CD8+ T cells were treated for different time points (2, 8, 10, 15 minutes) at 37° C. with H2O2 at 10 mM, CEACAM5 supernatant from PIPLC-293T cells expressing CEACAM5, and peptide 12 (20 μg/ml). Stimulation was stopped by fixing with 4% formaldehyde for 10 minutes at room temperature. Subsequently, cells were permeabilized with ice-cold methanol for 20 minutes, washed with PBS containing 0.2% FBS, and then stained with anti-phospho-Lck Ab (BD Biosciences, San Jose, Calif.). The cells were then re-suspended in PBS plus 0.2% FBS, data were acquired using the FACScan system (LSRFortessa, BD Biosciences), and analyzed with FlowJo analysis software (Ashland, Oreg.).

[4] = system: normal lamina propria CD8+ T cells; experiment: Cytokine IL10 production in lamina propria CD8+ T cells; details: cultured 3 days; supernatant assessed
Procedure: Cytokine production in lamina propria CD8+ T cells was evaluated. Normal lamina propria CD8+ and CD4+(control) T cells were cultured for 3 days in presence of OKT8 (control) or either CEACAM5 or peptide 12. The supernatant was then assessed for cytokine production.

[5] = system: Crohn's disease lamina propria CD8+ T cells; experiment: In vitro suppression assay, Crohn's disease lamina propria CD8+ T cells (suppression of CD4+ T cell proliferation); details: for average suppression percentage (suppressor phenotype): Crohn's disease lamina propria CD8+ cells, relative to CD4+ proliferation with normal unstimulated CD8+ T cells
Procedure: (§4) Lamina propria lymphocytes were isolated from patients undergoing surgery for Crohn's disease (CD) or colon cancer (representing a normal (NL) T cell population). Lamina propria CD8+ T cells were isolated after overnight incubation and incubated with CEACAM5 peptide for 3 days. CD8+ T cells were then washed and co-cultured with CFSE-CD3/CD28-stimulated CD4+ T cells for 3 days. Suppression of CD4+ T cell proliferation was measured on the 7th day.
as §1, §2, §3
(§5) Lamina propria lymphocytes were isolated from patients undergoing surgery for Crohn's disease (CD) or colon cancer (representing a normal (NL) T cell population). Lamina propria CD8+ T cells were isolated after overnight incubation and incubated with CEACAM5 peptide or peptide 12 for 3 days. CD8+ T cells were then washed and co-cultured with CFSE-CD3/CD28-stimulated CD4+ T cells for 3 days. Suppression of CD4+ T cell proliferation was measured on the 7th day.

[6] = system: normal lamina propria CD8+ T cells; experiment: In vitro suppression assay, normal (colon cancer) lamina propria CD8+ T cells; details: normal condition (colon cancer biopsies); CD8+ T cells incubated 3 days, vs absence of CEACAM5
Procedure: as §4, §5

## GYVIGTQQATPGPAYSGREI (Fragment of the CEACAM5 N-terminal domain) [peptide c]
[1]
  suppressor activity acquired by stimulated CD8+ T cells (suppression of CD4+ T cell proliferation): acquired suppressor activity

## H-ASLLIQNIIQNDTGF-OH [peptide 15]
[1]
  percent suppression of CD4+ T cell proliferation (suppressive activity): ~10%

## H-GTQQATPGPAYSGRE-OH [peptide 11]
[2]
  CD8+ T cell activation (LcK phosphorylation, p-LcK): induced phosphorylation of LcK at after 10 minutes

## H-IGYVIGTQQATPGPA-OH [peptide 10]
[2]
  CD8+ T cell activation (LcK phosphorylation, p-LcK): induced phosphorylation of LcK at after 10 minutes

## H-TPGPAYSGREIIYPN-OH [peptide 12]
[3]
  phosphorylation of CD8-associated LcK kinase: induce phosphorylation of CD8-associated LcK kinase
[4]
  IL10 production: increased IL10
[5]
  average suppression percentage (suppressor phenotype): 64%
[1]
  suppressor activity acquired by stimulated CD8+ T cells (suppression of CD4+ T cell proliferation): acquired suppressor activity at the same extant as those activated with full-length CEACAM5
[2]
  CD8+ T cell activation (LcK phosphorylation, p-LcK): greatest effect in the activation of CD8+ T cells

## H-YSGREIIYPNASLLI-OH [peptide 13]
[1]
  percent suppression of CD4+ T cell proliferation (suppressive activity): ~10%

## TQQATPGPAYSGREIITPNA (Fragment of the CEACAM5 N-terminal domain) [peptide d]
[1]
  suppressor activity acquired by stimulated CD8+ T cells (suppression of CD4+ T cell proliferation): acquiring suppressor activity to the same extent as cells activated with peptide 12

B1: CEACAM5: carcinoembryonic antigen family member 5 (GenBank Accession No. NP_001278413), full-length purified glycoprotein used as comparator (protein)
chain: KLTIESTPFNVAEGKEVLLLVHNLPQHLFGYSWYKGERVDGNRQIIGYVIGTQQATPGPAYSGREIIYPNASLLIQNIIQNDTGFYTLHVIKSDLVNEEATGQFRVYPELPKPSISSNNSKPVEDKDAVAFTCEPETQDATYLWWVNNQSLPVSPRLQLSNGNRTLTLFNVTRNDTASYKCETQNPVSARRSDSVILNVLYGPDAPTISPLNTSYRSGENLNLSCHAASNPPAQYSWFVNGTFQQSTQELFIPNITVNNSGSYTCQAHNSDTGLNRTTVTTITVYEPPKPFITSNNSNPVEDEDAVALTCEPEIQNTTYLWWVNNQSLPVSPRLQLSNDNRTLTLLSVTRNDVGPYECGIQNELSVDHSDPVILNVLYGPDDPTISPSYTYYRPGVNLSLSCHAASNPPAQYSWLIDGNIQQHTQELFISNITEKNSGLYTCQANNSASGHSRTTVKTITVSAELPKPSISSNNSKPVEDKDAVAFTCEPEAQNTTYLWWVNGQSLPVSPRLQLSNGNRTLTLFNVTRNDARAYVCGIQNSVSANRSDPVTLDVLYGPDTPIISPPDSSYLSGANLNLSCHSASNPSPQYSWRINGIPQQHTQVLFIAKITPNNNGTYACFVSNLATGRNNSIVKSITVSASGTSPGLSA
[3]
  phosphorylation of CD8-associated LcK kinase: induce phosphorylation of CD8-associated LcK kinase
[4]
  IL10 production: increased IL10
[5]
  average suppression percentage (suppressor phenotype): 63%
[5]; Crohn's disease, CD8+ T cells incubated 3 days
  suppressive function of lamina propria CD8+ T cells: stimulates the suppressive function
[6]
  suppressive function of lamina propria CD8+ T cells: increased suppressive function

From patent US20170189484A1, “CEACAM5 PEPTIDES FOR CROHN'S DISEASE” (ICAHN SCHOOL OF MEDICINE AT MOUNT SINAI, priority 2014, published 2017)
